ChEMBL document CHEMBL1201862, “PubChem BioAssay data set” (2004)
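Assay format: 96-well plates, 48-hour exposure. The concentration for 50% growth inhibition is given as GI50.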 The source made the active and inactive calls. No stated cut-off is given here; in the data, active = GI50 up to about 1.1 µM and inactive = higher.

How the values were obtained:
Experiment in all cases: inhibition of tumour cell growth, NCI panel, 48 h
PC-3 = tested on: PC-3
HT-29 = tested on: HT-29
A498 = tested on: A498
RPMI-8226 = tested on: RPMI-8226
SNB-19 = tested on: SNB-19
A549 = tested on: A549
MDA-N = tested on: MDA-N
COLO 205 = tested on: COLO 205
UACC-257 = tested on: UACC-257
HCT-15 = tested on: HCT-15
SK-MEL-28 = tested on: SK-MEL-28
HCT-116 = tested on: HCT-116
MOLT-4 = tested on: MOLT-4
M14 = tested on: M14
EKVX = tested on: EKVX
HL-60 = tested on: HL-60
NCI-H460 = tested on: NCI-H460
SF-539 = tested on: SF-539
DU-145 = tested on: DU-145
SNB-75 = tested on: SNB-75

O=C(O)c1cnccc1-c1cc(=O)[nH]n1-c1ccccc1
GI50 (PC-3): 16.3 µM (inactive) | GI50 (HT-29): 21.4 µM (inactive) | GI50 (A498): > 100 µM (inactive) | GI50 (RPMI-8226): 48 µM (inactive) | GI50 (SNB-19): > 100 µM (inactive) | GI50 (A549): 48.9 µM (inactive) | GI50 (MDA-N): 41.8 µM (inactive) | GI50 (COLO 205): 16 µM (inactive) | GI50 (UACC-257): 66.1 µM (inactive) | GI50 (HCT-15): 25.9 µM | GI50 (SK-MEL-28): > 43.4 µM (inactive) | GI50 (HCT-116): 51.8 µM (inactive) | GI50 (MOLT-4): 13.9 µM (inactive) | GI50 (M14): 10.8 µM (inactive) | GI50 (EKVX): > 53.1 µM (inactive) | GI50 (HL-60): 20.9 µM (inactive) | GI50 (NCI-H460): 35 µM (inactive) | GI50 (SF-539): 35.6 µM (inactive) | GI50 (DU-145): > 53.1 µM (inactive) | GI50 (SNB-75): > 68.5 µM (inactive)
